Test results from patent US9080216B2, “Genetic changes in ATM and ATR/CHEK1 as prognostic indicators in cancer” (University of Pittsburgh-of the CommonWealth System of …, priority 2007, dated 2015).
Entries after “also recorded” stand apart in the source; their conditions may differ.

Key:
Format in all cases: cell-based, human
[1] = system: UPCI:SCC084; assay: Clonogenic cell survival assay
Procedure: (§1) Clonogenic Cell Survival Assay. To assess cell survival in response to ionizing radiation, clonogenic survival assays were performed. Two thousand cells were seeded in 60 mm Petri dishes and allowed to adhere overnight. […] The culture medium was replaced at the end of 7 days. Untreated cells cultured in parallel were used to determine relative plating efficiency. After 12 days, the cells were fixed with 70% ethyl alcohol and stained with Giemsa (Sigma, St. Louis, Mo.) and the number of colonies was assessed. A colony was defined as a cluster of ≧50 cells, having formed from a single cell. All experiments were performed in triplicate, and the error reported as one standard deviation from the mean.

[2] = system: UPCI:SCC104; assay: Clonogenic cell survival assay
Procedure: as §1
SiRNA Transfection. ATR or CHEK1 inhibitions were carried out using the respective siRNAs for a specific knockout. RNA interference of ATR and CHEK1 was performed using Smartpool ATR and CHEK1 duplexes respectively, obtained from Dharmacon (Lafayette, Colo.). Nonspecific (scrambled) control duplexes (Dharmacon) were used for nonspecific siRNA treatment. The duplexes were reconstituted in 1×DNA-free RNA re-suspension buffer provided by Dharmacon and aliquoted according to the manufacturer's instructions. For transfection, the OSCC cell lines were seeded in 60 mm dishes or T25 flasks and transfected with siRNA duplexes using Lipofectamine 2000 (Invitrogen) according to the manufacturer's instructions. The individual siRNA duplex sequences are enumerated in Appendix B. The final working siRNA concentration achieved was between 90-100 nM. We used cells treated with no vector (untreated), empty vector (mock-treated), cells transfected with a nonspecific siRNA, and a specific ATR or CHEK1 siRNA for all of our experiments. At the end of 48 h post-transfection, appropriate treatments (ionizing radiation or aphidicolin treatment) were carried out as described earlier.

[3] = system: UPCI:SCC104; assay: Cell cycle analysis by flow cytometry; conditions: 1 mM or 5 mM caffeine 1 h prior to 5 Gy IR
Procedure: Cell Cycle Analysis by Flow Cytometry. […] These cells were washed with phosphate-buffered saline (PBS), and fixed with 70% ethanol. The cells were then treated with 80 μg/ml RNase A and 50 μg/ml propidium iodide (Invitrogen-Molecular Probes, Carlsbad, Calif.) for 45 min at 37° C. The stained cells were analyzed using a Coulter Epics XL Flow Cytometer in the UPCI Flow Cytometry Facility. SiRNA Transfection. ATR or CHEK1 inhibitions were carried out using the respective siRNAs for a specific knockout. RNA interference of ATR and CHEK1 was performed using Smartpool ATR and CHEK1 duplexes respectively, obtained from Dharmacon (Lafayette, Colo.). Nonspecific (scrambled) control duplexes (Dharmacon) were used for nonspecific siRNA treatment. The duplexes were reconstituted in 1×DNA-free RNA re-suspension buffer provided by Dharmacon and aliquoted according to the manufacturer's instructions. For transfection, the OSCC cell lines were seeded in 60 mm dishes or T25 flasks and transfected with siRNA duplexes using Lipofectamine 2000 (Invitrogen) according to the manufacturer's instructions. The individual siRNA duplex sequences are enumerated in Appendix B. The final working siRNA concentration achieved was between 90-100 nM. […]

[4] = system: OSCC; assay: Cell cycle analysis by flow cytometry after caffeine and irradiation; conditions: following irradiation
Procedure: Cell Cycle Analysis by Flow Cytometry. […] These cells were washed with phosphate-buffered saline (PBS), and fixed with 70% ethanol. The cells were then treated with 80 μg/ml RNase A and 50 μg/ml propidium iodide (Invitrogen-Molecular Probes, Carlsbad, Calif.) for 45 min at 37° C. The stained cells were analyzed using a Coulter Epics XL Flow Cytometer in the UPCI Flow Cytometry Facility.

[5] = different doses of caffeine, compared to UPCI:SCC066, 105 and control NHOK
[6] = cell lines with an upregulated ATR-CHEK1 pathway including GM09607 (AT cells)

## Cn1c(=O)c2c(ncn2C)n(C)c1=O [caffeine]
[1]; 0.5 mM caffeine, UPCI:SCC084, absence of any DNA damaging agents
  reduction in colony survival: > 50%
[1]; 1 mM caffeine, UPCI:SCC084
  colony survival: complete absence of survival; also recorded: Complete inhibition of colony formation
[1]; [5]
  sensitivity to caffeine (clonogenic cell survival): increased sensitivity
[2]; 0.5 mM caffeine, UPCI:SCC104, absence of any DNA damaging agents
  reduction in colony survival: > 50%
[2]; 1 mM caffeine, UPCI:SCC104
  colony survival: complete absence of survival
[2]; [5]
  sensitivity to caffeine (clonogenic cell survival): increased sensitivity
[3]
  G2M accumulation: dose dependent reduction
  sub G0 peak (dead cells): increase
[4]; cell lines with an intact G1 checkpoint and normal ATR-CHEK1 expression
  sensitivity to caffeine (cell cycle profile): did not demonstrate any sensitivity
[4]; [6]
  accumulation of cells in the S and G2M phases: clearly reduced
  sub-G0 population (dead cells): increased
